According to patent US7825126B2 (The United States of America as represented by the …, priority 2004, dated 2010):
Where “and” joins values, the source holds several entries; their conditions need not be identical. Identical values can stand only once.

Assays:
intact mouse heart = assay: Anti-ischemic cardioprotection, Langendorff-perfused mouse heart model of global ischemia/reperfusion; format: in vivo; settings: 30 nM
Protocol: Anti-ischemic Cardioprotection. Langendorff perfusion of the mouse hearts was carried out. Mice were anesthetized with 60 mg/kg sodium pentobarbital (i.p.), and heart excised in ice-cold perfusion buffer. The aorta was cannulated and retrograde perfused in the Langendorff mode at a pressure of 55 mmHg. To assess isovolumic function, fluid-filled polyvinyl plastic film balloons were inserted into the left ventricle via the left atrium. Balloons were connected to a fluid-filled pressure transducer to measure the left ventricular developed pressure (LVDP), +dP/dt, −dP/dt, and heart rate. To induce normothermic global ischemia and reperfusion, retrograde perfusion of the aorta was stopped, and hearts were immersed in the same perfusion buffer in a water-jacketed bath maintained at 37° C. After 35-min ischemia and 30-min reperfusion, the recovery of left ventricular function was determined by quantifying the LVDP, +dP/dt, and −dP/dt. To quantify the infarct, the hearts were retrograde perfused with 1% triphenyltetrazolium chloride (TTC) in perfusion buffer for 10 minutes after 120-min reperfusion, which allowed washout of pyridine nucleotides from necrotic cells as required for TTC staining. The heart was then immersed in the same TTC buffer for another 10 minutes. The hearts were frozen, cut into six or seven 1 mm slices from apex to base, and scanned for measurement of infarct size by computer morphometry (Image-Pro Plus, version 5.0, Media Cybernetics, Inc, Silver Spring, Md.). The infarct size was quantified as the area of necrosis normalized to the total ventricular area.

rat A1 receptors = rat A1 receptors (Rattus norvegicus, UniProt P25099); assay: biochemical
Sequence of rat A1 receptors (P25099 whole entry): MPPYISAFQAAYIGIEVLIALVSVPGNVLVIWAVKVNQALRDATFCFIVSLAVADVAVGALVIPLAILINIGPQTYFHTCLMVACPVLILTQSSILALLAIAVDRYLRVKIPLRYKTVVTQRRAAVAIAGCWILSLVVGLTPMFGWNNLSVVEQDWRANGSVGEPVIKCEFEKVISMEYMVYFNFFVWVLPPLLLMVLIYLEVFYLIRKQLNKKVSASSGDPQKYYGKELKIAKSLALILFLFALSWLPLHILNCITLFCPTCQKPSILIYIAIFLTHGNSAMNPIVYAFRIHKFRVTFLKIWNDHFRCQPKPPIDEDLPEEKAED
Protocol: Striatal and forebrain tissues from Wistar rats were homogenized in ice-cold 50 mM Tris-HCl buffer, pH 7.4, using an electric homogenizer. The homogenate was centrifuged at 20,000 g for 10 min at 4° C., and the pellet was washed in fresh buffer. The final pellet was stored at −80° C. until the binding experiments. The protein concentration was measured using the Bradford assay.
Binding assays at the A1 and A2A receptors. […] Reaction was terminated by filtration with GF/B filters.
Statistical analysis Binding and functional parameters were calculated using Prism 5.0 software (GraphPAD, San Diego, Calif., USA). IC50 values obtained from competition curves were converted to Ki values using the Cheng-Prusoff equation.

[1] = target: T1, human A3 adenosine receptor (Homo sapiens, UniProt P0DMS8); assay: Cyclic AMP accumulation assay (inhibition of forskolin-stimulated cAMP), CHO cells expressing human A3 adenosine receptor
T1 sequence (P0DMS8 1-318): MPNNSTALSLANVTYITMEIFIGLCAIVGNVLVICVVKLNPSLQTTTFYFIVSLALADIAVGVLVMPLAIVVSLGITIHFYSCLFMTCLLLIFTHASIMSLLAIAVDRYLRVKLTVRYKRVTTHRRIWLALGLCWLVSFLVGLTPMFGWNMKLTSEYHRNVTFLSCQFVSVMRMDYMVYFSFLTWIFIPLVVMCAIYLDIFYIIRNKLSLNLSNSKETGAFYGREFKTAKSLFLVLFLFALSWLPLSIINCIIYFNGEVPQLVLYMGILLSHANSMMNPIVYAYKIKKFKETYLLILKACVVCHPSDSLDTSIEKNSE
Protocol: (§1) The cyclic AMP accumulation assay was performed as follows. Intracellular cyclic AMP levels were measured with a competitive protein binding method. […] After centrifugation and resuspension in medium, cells were plated in 24-well plates in 1.0 ml medium. […] The reaction was terminated by removing the supernatant, and cells were lysed upon the addition of 200 μL of 0.1 M ice-cold HCl. The cell lysate was resuspended and stored at −20° C. For determination of cyclic AMP production, protein kinase A (PKA) was incubated with [^3H]cyclic AMP (2 nM) in K2HPO4/EDTA buffer (K2HPO4, 150 mM; EDTA, 10 mM), 20 μL of the cell lysate, and 30 μL 0.1 M HCl or 50 μL of cyclic AMP solution (0-16 pmol/200 μL for standard curve). Bound radioactivity was separated by rapid filtration through Whatman GF/C filters and washed once with cold buffer. Bound radioactivity was measured by liquid scintillation spectrometry.
(§2) Forskolin (10 μM) was used to stimulate cyclic AMP levels.

[2] = target: T2, human A1 adenosine receptor (Homo sapiens, UniProt P30542); assay: Cyclic AMP accumulation assay (inhibition of forskolin-stimulated cAMP), CHO cells expressing human A1 adenosine receptor
T2 sequence (P30542 1-326): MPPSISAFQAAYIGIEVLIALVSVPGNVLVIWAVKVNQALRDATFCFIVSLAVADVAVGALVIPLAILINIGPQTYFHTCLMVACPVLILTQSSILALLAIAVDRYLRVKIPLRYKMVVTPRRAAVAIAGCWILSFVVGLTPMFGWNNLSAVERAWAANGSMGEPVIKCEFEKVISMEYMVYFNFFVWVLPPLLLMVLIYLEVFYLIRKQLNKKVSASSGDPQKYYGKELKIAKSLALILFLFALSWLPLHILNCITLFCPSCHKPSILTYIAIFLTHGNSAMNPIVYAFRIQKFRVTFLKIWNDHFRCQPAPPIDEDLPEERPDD
Protocol: as §1, §2

[3] = n = 6, 35 global ischemia followed by reperfusion

SMILES: CNC(=O)C12CC1C(n1cnc3c(NC4CCCC4)nc(Cl)nc31)C(O)C2O (stereo not drawn) [Compound 104, (1′S,2′R,3′S,4′S,5′S) -4′-[6-(cyclopentylamino)-2-chloro-purin-9-yl]-2′,3′-dihydroxy-bicyclo[3.1.0]hexane-1′-carboxylic acid methyl amide]
- recovery of left ventricular developed pressure, +dP/dt, −dP/dt and heart rate (in words) (intact mouse heart): improved significantly
- Recovery of +dP/dt (intact mouse heart; [3]): 21.1 ± 4.9 % of baseline prior to ischemia/reperfusion
- Recovery of HR (intact mouse heart; [3]): 93.8 ± 19.3 % of baseline prior to ischemia/reperfusion
- Recovery of LVDP (intact mouse heart; [3]): 26.0 ± 4.8 % of baseline prior to ischemia/reperfusion
- Recovery of −dP/dt (intact mouse heart; [3]): 24.6 ± 7 % of baseline prior to ischemia/reperfusion
- % necrosis (infarct size, TTC staining) (intact mouse heart; n = 6, area of necrosis normalized to total ventricular area): 15±7% and 15.0 ± 6.9%
- anti-ischemic cardioprotective effect (in words) (intact mouse heart; perfused until induction of ischemia): potent anti-ischemic cardioprotective effect
- infarct size (in words) (intact mouse heart; computer morphometry after TTC staining): significantly reduced
- Ki (rat A1 receptors): 17.4 nM
- EC50 [1]: 2.8 nM
- % Activation (hA3AR) at 10 μM ([1]; 10 μM, relative to 10 μM Cl-IB-MECA): 101 ± 10%
- agonist character at human A3 (concentration response curves, cAMP) ([1]; intact transfected CHO cells): full agonist
- EC50 [2]: 8.2 nM
- agonist character at human A1 (concentration response curves, cAMP) ([2]; intact transfected CHO cells): full agonist
